Experimental data as given in patent US11040976B2, “Substrate selective inhibitors of insulin-degrading enzyme (IDE) and uses thereof” (President and Fellows of Harvard College, priority 2015, dated 2021).

Legend:
[1] = biological target: T1, IDE (R&D), substrate insulin (Homo sapiens, UniProt P14735); experiment: HTRF endpoint assay for IDE-mediated degradation of insulin; type: biochemical; details: HTRF endpoint assays for insulin and glucagon, FIG. 4; compounds 67 μM, 6bK 10 μM
T1 construct: recombinant human IDE42-1019 (R&D Systems); purchased R&D
T1 sequence (P14735 42-1019): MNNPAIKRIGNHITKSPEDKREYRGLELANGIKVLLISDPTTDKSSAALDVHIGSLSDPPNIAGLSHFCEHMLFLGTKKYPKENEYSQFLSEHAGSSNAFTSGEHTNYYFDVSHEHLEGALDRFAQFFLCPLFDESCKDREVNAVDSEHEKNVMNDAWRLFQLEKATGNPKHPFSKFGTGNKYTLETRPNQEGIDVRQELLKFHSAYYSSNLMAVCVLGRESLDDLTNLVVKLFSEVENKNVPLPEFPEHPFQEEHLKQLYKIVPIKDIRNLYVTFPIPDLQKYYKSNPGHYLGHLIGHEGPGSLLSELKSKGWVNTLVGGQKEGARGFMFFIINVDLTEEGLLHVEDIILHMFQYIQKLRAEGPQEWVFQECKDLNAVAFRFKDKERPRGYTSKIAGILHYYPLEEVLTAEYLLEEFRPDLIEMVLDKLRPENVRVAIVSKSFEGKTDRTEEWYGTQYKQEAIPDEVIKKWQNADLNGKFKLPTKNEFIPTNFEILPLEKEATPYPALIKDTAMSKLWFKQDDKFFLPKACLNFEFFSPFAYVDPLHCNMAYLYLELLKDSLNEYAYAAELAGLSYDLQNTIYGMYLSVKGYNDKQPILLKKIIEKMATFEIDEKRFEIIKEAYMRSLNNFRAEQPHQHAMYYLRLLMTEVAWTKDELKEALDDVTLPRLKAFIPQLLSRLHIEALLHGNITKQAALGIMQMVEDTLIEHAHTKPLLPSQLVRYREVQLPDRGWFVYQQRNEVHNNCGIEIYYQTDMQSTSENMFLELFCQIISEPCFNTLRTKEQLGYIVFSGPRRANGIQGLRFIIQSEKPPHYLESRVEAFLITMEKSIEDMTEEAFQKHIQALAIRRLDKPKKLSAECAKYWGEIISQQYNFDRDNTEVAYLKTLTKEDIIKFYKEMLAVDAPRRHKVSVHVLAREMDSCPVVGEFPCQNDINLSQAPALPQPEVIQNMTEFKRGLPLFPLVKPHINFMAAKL
Description: A solution of 0.8 μg/mL IDE (R&D) in pH 7.5 buffer containing 20 mM HEPES, 135 mM NaCl (24 μL) was transferred to a 200 μL tube strip, and combined with 1 μL of each inhibitor (10 mM in DMSO, or as a 3-fold dilution series). A solution of insulin in “Assay Diluent” (CisBio, 25 μL) was added to a final concentration of 20 ng/mL, and incubated at 30° C. for 15 minutes. This procedure was optimized to result in ˜75% degradation of insulin. The reaction was terminated by adding 25 μL of inhibitor Ii1 (200 nM) and chilled on ice. The remaining insulin was quantified using 10 μL of the quenched enzymatic reaction using the sensitive-range protocol Homogeneous Time-Resolved FRET Insulin assay (CisBio® 62INSPEB, see FIG. 3) in 20 μL total volume according to the manufacturer's instructions (384 well-plate Greiner 784904 non-binding). Fluorescence was measured using a Tecan M1000Pro plate reader (excitation=320 nm, emission=665 and 620 nm, lag time=60 μs) according the assay manufacturer's recommendations. Blank wells and insulin standard curve were included in the assay.
FIG. 4 compares the determined endpoint for insulin degradation with of glucagon degradation for a DMSO control, 6bK at 10 μM, and exemplary compounds of the invention at concentrations of 67 μM. […]

[2] = biological target: T2, IDE (R&D), substrate glucagon (Homo sapiens, UniProt P14735); experiment: HTRF assay for IDE-mediated degradation of glucagon; type: biochemical; details: compounds 67 μM, 0° C. for 10 minutes, versus DMSO alone, FIG. 5
T2 construct: recombinant human IDE42-1019 (R&D Systems); purchased R&D
T2 sequence (P14735 42-1019): T1 sequence (P14735 42-1019)
Description: A solution of 0.05 μg/mL IDE (R&D) in “Diluent #5” (CisBio, 24 μL) was transferred to a 200 μL tube strip, and combined with 1 μL of each inhibitor (10 mM in DMSO, or as a 3-fold dilution series). […] This procedure was optimized to result in ˜75% degradation of glucagon. The reaction was terminated by 1 μL of inhibitor Ii1 (5 μM) and chilled on ice. The remaining glucagon was quantified using 10 μL of the quenched enzymatic reaction using the sensitive-range protocol Homogeneous Time-Resolved FRET Glucagon assay (CisBio® 62GLCPEF, see FIG. 3) in 20 μL total volume according to the manufacturer's instructions (384 well-plate Greiner 784904 non-binding). Fluorescence was measured using a Tecan M1000Pro plate reader (excitation=340 nm, emission=665 and 620 nm, lag time=60 μs) according the assay manufacturer's recommendations. Blank wells and glucagon standard curve were included in the assay.
FIG. 4 compares the determined endpoint for insulin degradation with of glucagon degradation for a DMSO control, 6bK at 10 μM, and exemplary compounds of the invention at concentrations of 67 μM.
The HTRF endpoint assay for insulin and glucagon was performed over a range of concentrations for several potential inhibitors and for 6bK.

| SMILES | selectivity between insulin degradation and glucagon degradation [1] | initial rates of glucagon cleavage [2] |
| --- | --- | --- |
| NCCCC[C@@H]1NC(=O)/C=C/C(=O)N[C@H](C(N)=O)CCCCNC(=O)[C@@H](Cc2ccc(C(=O)c3ccccc3)cc2)NC(=O)[C@H](CC2CCCCC2)NC1=O [6bK, reference compound] | no selectivity |  |
| Cc1cccc(-c2ccc([C@@H]3[C@@H](CO)N4CCCCN(S(=O)(=O)c5ccccc5C)C[C@@H]34)cc2)c1 [compound 297] |  | reduced |
